Measurements from ChEMBL document CHEMBL1201862, “PubChem BioAssay data set” (2004).
Active and inactive are the calls of the source.

Legend:
cells [1] = assay type: functional, cell-based
[2] = target: T1, Trace amine-associated receptor 1 (Homo sapiens, UniProt Q96RJ0); assay: Counterscreen for agonists of the human trace amine associated receptor 1 (hTAAR1): Fluorescence-based cell-based high throughput dose response assay to identify hTAAR1 agonist that also desensitize TAAR1 receptor response.; assay type: functional
T1 sequence (Q96RJ0 whole entry): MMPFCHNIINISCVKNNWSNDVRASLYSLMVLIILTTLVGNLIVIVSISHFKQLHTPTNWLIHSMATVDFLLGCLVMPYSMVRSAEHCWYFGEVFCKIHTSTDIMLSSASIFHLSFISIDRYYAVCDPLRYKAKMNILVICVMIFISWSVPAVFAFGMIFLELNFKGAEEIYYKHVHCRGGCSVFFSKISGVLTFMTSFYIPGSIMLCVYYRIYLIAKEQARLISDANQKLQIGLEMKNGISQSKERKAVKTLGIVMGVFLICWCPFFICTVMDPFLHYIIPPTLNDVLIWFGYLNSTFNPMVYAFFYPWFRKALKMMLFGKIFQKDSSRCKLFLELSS

[3] = target: T2, Sentrin-specific protease 8 (Homo sapiens, UniProt Q96LD8); assay type: functional
T2 sequence (Q96LD8 whole entry): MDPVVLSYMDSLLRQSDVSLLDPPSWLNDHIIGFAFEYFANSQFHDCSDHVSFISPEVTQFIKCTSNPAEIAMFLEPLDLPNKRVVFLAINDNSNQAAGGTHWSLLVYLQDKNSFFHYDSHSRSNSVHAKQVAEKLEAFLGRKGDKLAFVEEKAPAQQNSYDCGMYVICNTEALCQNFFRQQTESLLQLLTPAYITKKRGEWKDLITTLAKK

[4] = target: T2, Sentrin-specific protease 8; assay type: functional; remark: listed apart in the source
[5] = target: T1, Trace amine-associated receptor 1; assay: Fluorescence-based cell-based high throughput dose response assay to identify agonists of the human trace amine associated receptor 1 (TAAR1).; assay type: functional
cells [6] = assay type: functional, cell-based; remark: listed apart in the source
H9c2 = assay: cells; assay type: functional, cell-based; conditions: Rattus norvegicus, H9c2, Myocardium;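 also: confirmatory concentration-response retest of ultra-high-throughput screening hits for modulation of myocardial damage; cell death induced by hydrogen peroxide oxidative stress; compound pretreatment for 60 min then peroxide exposure for 2 h; potency is for protecting the cells against peroxide damage rather than for killing them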
Vero = assay: cells; assay type: functional; conditions: Chlorocebus sabaeus
[7] = Luminescence Cell-Based Dose Retest to Confirm Inhibitors of Cancer Stem Cells. [Related pubchem assays (depositor defined):AID2717, AID2721]; assay type: functional; conditions: Homo sapiens
[8] = HeLa cell cytotoxicity, dose response, cytotoxicity control for MgcRacGAP inhibitor project (AID 624300); assay type: functional
[9] = target: T3, Rac GTPase-activating protein 1 (Homo sapiens, UniProt Q9H0H5); assay: MgcRacGAP GTPase-activating activity inhibitors, confirmation, biochemical, ADP Hunter fluorescence, primary and confirmatory (AID 624330); assay type: functional
T3 sequence (Q9H0H5 whole entry): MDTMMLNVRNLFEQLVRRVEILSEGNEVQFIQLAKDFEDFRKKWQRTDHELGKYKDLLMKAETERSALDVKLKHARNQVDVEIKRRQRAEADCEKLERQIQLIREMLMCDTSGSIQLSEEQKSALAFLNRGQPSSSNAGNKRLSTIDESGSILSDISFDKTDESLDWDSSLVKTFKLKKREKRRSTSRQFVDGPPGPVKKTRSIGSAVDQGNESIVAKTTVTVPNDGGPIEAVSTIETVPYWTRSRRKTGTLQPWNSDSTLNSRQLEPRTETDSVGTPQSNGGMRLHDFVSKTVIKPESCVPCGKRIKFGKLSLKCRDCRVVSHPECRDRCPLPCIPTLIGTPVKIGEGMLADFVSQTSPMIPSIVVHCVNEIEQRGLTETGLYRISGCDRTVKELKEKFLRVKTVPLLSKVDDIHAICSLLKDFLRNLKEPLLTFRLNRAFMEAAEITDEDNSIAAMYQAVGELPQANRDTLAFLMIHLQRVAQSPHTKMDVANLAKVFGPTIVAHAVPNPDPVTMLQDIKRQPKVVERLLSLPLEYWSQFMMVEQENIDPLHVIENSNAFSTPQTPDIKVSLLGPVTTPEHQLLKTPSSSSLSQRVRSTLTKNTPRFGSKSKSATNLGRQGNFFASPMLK

[10] = target: T4, DNA repair protein RAD52 homolog (Homo sapiens, UniProt P43351); assay type: functional, biochemical
T4 sequence (P43351 whole entry): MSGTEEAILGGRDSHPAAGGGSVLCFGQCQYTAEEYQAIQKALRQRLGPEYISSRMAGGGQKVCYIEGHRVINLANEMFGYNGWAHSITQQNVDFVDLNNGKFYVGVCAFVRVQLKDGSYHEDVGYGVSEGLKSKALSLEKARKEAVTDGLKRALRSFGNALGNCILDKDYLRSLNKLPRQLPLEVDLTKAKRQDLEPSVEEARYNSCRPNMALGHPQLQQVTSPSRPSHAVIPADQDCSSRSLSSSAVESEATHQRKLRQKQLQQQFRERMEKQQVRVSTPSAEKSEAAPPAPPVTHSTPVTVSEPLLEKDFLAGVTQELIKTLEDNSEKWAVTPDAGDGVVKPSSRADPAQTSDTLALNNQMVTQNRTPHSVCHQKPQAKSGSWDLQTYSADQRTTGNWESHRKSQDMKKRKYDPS

[11] = target: T5, DNA repair and recombination protein RAD54-like (Homo sapiens, UniProt Q92698); assay: inhibitors of human RAD54 branch migration, confirmation, biochemical, fluorescence, cherry-picked samples, dose series (AID 651657); assay type: functional
T5 sequence (Q92698 whole entry): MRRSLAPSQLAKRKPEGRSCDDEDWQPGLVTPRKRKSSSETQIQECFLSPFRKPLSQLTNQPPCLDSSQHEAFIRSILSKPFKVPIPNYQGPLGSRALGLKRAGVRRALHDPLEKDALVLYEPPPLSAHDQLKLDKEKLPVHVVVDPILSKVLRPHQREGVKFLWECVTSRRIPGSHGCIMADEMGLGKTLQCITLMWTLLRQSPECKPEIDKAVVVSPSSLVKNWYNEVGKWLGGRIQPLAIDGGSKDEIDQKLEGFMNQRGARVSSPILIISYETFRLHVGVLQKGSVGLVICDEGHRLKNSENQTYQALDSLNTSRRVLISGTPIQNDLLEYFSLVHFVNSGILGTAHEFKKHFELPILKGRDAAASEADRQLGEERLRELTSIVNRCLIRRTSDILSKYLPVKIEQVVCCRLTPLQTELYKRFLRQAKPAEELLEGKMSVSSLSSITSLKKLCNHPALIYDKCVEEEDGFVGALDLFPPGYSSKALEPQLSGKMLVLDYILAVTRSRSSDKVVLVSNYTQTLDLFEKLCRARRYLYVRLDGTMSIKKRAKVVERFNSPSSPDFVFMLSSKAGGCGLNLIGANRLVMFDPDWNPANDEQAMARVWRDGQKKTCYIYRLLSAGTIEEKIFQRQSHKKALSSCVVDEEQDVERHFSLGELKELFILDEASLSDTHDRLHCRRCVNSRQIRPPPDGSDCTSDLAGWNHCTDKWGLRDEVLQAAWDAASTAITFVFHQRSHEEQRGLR

[12] = NIH-3T3 fibroblast cytotoxicity, dose response, cytotoxicity control, cell-based, fluorescence, Alamar Blue, secondary assay (AID 2327); assay type: functional;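 also: NIH-3T3 mouse fibroblasts cultured with fluconazole at 8 µg/mL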
[13] = cytotoxicity toward NIH3T3 fibroblasts, dose response, counter-screen, cell-based, ATP luminescence, mouse fibroblasts (AID 2010); assay type: functional;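 also: cells exposed to compound for about 90 hours before reading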
[14] = inhibitors of intracellular T. cruzi replication, confirmation, NIH3T3 host cells, beta-gal luminescence (AID 2044); assay type: functional, cell-based;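 also: intracellular parasites grown in NIH/3T3 mouse fibroblasts as host cells; luminescent beta-galactosidase reporter signal from transgenic T. cruzi replicating inside host cells; inhibitors lower the luminescence signal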
[15] = C. albicans growth with fluconazole, confirmation, fluorescence, retest (AID 2467); assay type: functional, cell-based
[16] = target: T6, Heat shock factor protein 1 (Mus musculus, UniProt P38532); assay: HSF1 potentiators in luciferase reporter cells, confirmation, cell-based, NIH3T3, luminescence, dose retest (AID 435004); assay type: functional;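 also: stress induced by proteasome inhibitor MG132 added 30 min after compound; luciferase reporter driven by HSF1 response element in NIH3T3 cells; actives raise luminescence as potentiators of the MG132 stress response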
T6 sequence (P38532 whole entry): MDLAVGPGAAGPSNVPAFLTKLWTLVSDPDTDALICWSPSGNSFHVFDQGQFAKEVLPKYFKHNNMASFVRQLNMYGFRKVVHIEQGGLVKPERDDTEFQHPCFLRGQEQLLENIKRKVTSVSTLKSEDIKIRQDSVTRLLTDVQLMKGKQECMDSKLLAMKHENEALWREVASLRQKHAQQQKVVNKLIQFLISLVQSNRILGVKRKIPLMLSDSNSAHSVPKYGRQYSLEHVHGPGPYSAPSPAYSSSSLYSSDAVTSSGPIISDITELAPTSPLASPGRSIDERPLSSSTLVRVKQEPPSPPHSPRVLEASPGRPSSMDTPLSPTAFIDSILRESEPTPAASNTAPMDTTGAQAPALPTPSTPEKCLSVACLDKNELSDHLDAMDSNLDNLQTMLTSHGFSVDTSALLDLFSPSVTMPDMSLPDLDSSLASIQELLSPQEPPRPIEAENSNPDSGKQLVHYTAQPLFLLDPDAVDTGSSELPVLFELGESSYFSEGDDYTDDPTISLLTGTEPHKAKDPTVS

Leucine aminopeptidase = target: T7, Leucine aminopeptidase (Plasmodium falciparum 3D7, UniProt Q8IL11); assay: P. falciparum M17LAP inhibitors, primary screen, biochemical, fluorogenic H-Leu-NHMec substrate, 1536-well (AID 1619); assay type: functional
T7 sequence (Q8IL11 whole entry): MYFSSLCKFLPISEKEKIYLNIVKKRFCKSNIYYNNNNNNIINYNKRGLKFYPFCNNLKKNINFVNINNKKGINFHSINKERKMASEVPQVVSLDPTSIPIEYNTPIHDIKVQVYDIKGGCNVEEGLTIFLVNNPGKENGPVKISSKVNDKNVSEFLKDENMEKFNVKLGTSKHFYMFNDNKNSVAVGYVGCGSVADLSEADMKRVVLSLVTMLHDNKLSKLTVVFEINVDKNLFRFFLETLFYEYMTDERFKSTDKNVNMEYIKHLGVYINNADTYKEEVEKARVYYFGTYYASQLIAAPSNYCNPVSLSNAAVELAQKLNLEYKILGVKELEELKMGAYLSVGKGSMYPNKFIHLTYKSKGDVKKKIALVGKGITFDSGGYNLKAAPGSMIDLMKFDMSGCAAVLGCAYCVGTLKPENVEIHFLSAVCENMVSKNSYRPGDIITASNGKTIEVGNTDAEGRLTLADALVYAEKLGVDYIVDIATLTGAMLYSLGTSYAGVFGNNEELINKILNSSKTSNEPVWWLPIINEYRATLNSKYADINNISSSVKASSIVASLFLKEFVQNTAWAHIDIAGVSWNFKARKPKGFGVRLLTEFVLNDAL

Large T antigen = Large T antigen (Simian virus 40, UniProt P03070); assay type: functional, Betapolyomavirus macacae;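 also: Confirmatory-stage PubChem screen for compounds that inhibit SV40 T antigen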
Chain of Large T antigen (P03070 whole entry): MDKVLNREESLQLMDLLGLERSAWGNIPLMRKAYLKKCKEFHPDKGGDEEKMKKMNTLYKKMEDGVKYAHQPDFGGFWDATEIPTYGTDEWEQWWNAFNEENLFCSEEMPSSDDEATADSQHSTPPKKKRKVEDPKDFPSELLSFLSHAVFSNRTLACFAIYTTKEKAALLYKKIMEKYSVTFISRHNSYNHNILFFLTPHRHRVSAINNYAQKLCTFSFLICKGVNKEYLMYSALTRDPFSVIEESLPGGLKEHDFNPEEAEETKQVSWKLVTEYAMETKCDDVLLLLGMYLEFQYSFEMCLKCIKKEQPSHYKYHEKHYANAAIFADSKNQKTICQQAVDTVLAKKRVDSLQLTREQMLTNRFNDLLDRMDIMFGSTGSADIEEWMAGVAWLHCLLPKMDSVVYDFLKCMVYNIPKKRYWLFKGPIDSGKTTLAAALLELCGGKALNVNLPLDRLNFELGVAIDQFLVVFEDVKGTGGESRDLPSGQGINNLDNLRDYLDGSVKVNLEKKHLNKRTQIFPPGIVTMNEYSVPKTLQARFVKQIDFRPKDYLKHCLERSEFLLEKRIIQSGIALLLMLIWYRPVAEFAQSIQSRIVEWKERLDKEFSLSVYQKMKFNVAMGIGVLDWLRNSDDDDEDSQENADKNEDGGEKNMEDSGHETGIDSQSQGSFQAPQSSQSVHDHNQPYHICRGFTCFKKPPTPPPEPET

Cc1cc(C)n(C(CC(=O)N2CCc3ccccc3C2)C(=O)O)n1 (stereo unspecified)
EC50 (cells [1]): > 29.9 µM (inactive)
IC50 [2]: 4.32 µM (active)
IC50 [3]: 16.5 µM (active)
IC50 [4]: > 100 µM (inactive)
EC50 [5]: 1.06 µM (active)
IC50 (cells [6]): > 29.9 µM (inactive)

Cc1cccn2c(CNCC3OCCc4ccccc43)c(C(=O)N3CCCCC3)nc12 (stereo unspecified)
EC50 (cells [1]): > 29.9 µM (inactive)
IC50 [2]: 4.82 µM (active)
EC50 [5]: 4.38 µM (active)
IC50 (cells [6]): > 29.9 µM (inactive)

COc1cc2ccnc(C=O)c2cc1OC
IC50 (H9c2): 14.5 µM (active)
CC50 (Vero): > 25 µM (active)

Cc1cccc(NC(=O)c2[nH]cnc2C(=O)NCCCNC(=O)c2nc[nH]c2C(=O)Nc2cccc(C)c2)c1
AC50 [7]: 10.6 µM (active)
IC50 (H9c2): 26.2 µM (active)

CCCCCCCCN1C(=O)[C@H](CC(=O)NCCc2ccccc2OC)C[C@@]2(C(=O)OC)CCCCC=C12
EC50 (cells [1]): > 29.9 µM (inactive)
IC50 [2]: 9.43 µM (active)
EC50 [5]: 7.05 µM (active)
IC50 (cells [6]): > 29.9 µM (inactive)

OC(CON=C1c2ccccc2-c2ccccc21)CN1CCNCC1 (stereo unspecified)
CC50 [8]: 100 µM (active)
IC50 [9]: 62.7 µM (active)

CN(C)CCCNc1nc2cc(-c3cccc(Cl)c3)sc2c(=O)n1C
AC50 [10]: 4.7 µM (active)
AC50 [11]: 32.9 µM (active)

N=C(NOC(=O)N1c2ccccc2Sc2ccccc21)c1ccccc1
EC50 [12]: > 160 µM (inactive)
EC50 [13]: > 60 µM (not active)
EC50 [14]: 0.814 µM (active)
CC50 [8]: 100 µM (active)
EC50 [15]: 1.22 µM (active)

CC(Nc1ccnc2cc(Cl)ccc12)c1ccc(S(N)(=O)=O)cc1 (stereo unspecified)
EC50 (cells [1]): > 29.9 µM (inactive)
IC50 [2]: > 29.9 µM (inactive)
EC50 [5]: 14.9 µM (inactive)
IC50 (cells [6]): > 29.9 µM (inactive)

c1cc2c3c(cccc3c1)C(N1CCCCC1)=N2
AC50 [11]: 34 µM (active)

O=C1C2C3C=CC(CC3)C2C(=O)N1c1cccc(Br)c1 (stereo unspecified)
IC50 (H9c2): > 79 µM (inactive)

COc1ccc(Nc2cc(C)nc(N3CCOCC3)n2)cc1
EC50 (cells [1]): > 29.9 µM (inactive)
IC50 [2]: > 29.9 µM (inactive)
EC50 [5]: 3.33 µM (active)
IC50 (cells [6]): > 29.9 µM (inactive)

Cc1n[nH]c(-c2ccc(O)c(C)c2O)c1-c1cnn(-c2ccccc2)c1
EC50 [12]: > 160 µM (inconclusive)
CC50 [8]: 98.9 µM (active)
IC50 [9]: 85.8 µM (active)
EC50 [16]: > 260 µM (inactive)
EC50 [15]: > 38 µM (not active)

CC(C)C1N=C2c3ccccc3N=C(SCC(=O)c3ccc(O)c(O)c3)N2C1=O (stereo unspecified)
IC50 (Leucine aminopeptidase): 17.7 µM (active)
CC50 [8]: 100 µM (active)
IC50 [9]: 26.1 µM (active)
IC50 (Large T antigen): 21.3 µM (active)
